Laboratory results taken from patent EP0678516B1, “Preparation of 2-bromo-5-(2-bromo-2-nitrovinyl)-furan and its use as microcide” (CENTRO DE BIOACTIVOS QUIMICOS DE LA UNIVERSIDAD CENTRAL DE …, priority 1994, dated 1995).
Converted amounts (≈) assume the structure as drawn.

Legend:
Assay in all cases: In vitro MIC (serial dilution)
Type in all cases: cell-based
[1] = test system: Vibrio cholerae ser. Inabu
Method: (§1) The antimicrobial sensitivity was first evaluated "in vitro" using the serial dilution method for bacteria and fungi. Other growth methods in agar cultures were included for other species. The liquid and solid mediums used were Mueller-Hinton, Tryptona Soya, Sabouraud Dextrosa, Sabouraud Maltose and other mediums in accordance with the cultural demands of the micro-organisms valued.
(§2) The temperature and incubation period was adjusted to conditions and characteristics of the micro-organisms used.
(§3) The Minimal Inhibitory Concentration (MIC) was calculated in terms of MIC50 and MIC90 in µg/ml.

[2] = test system: Pseudomonas maltophila
Method: as §1, §2, §3

[3] = test system: Streptococcus pyogenes
Method: as §1, §2, §3

O=[N+]([O-])C(Br)=Cc1ccc(Br)o1 [Product G-1, 2-bromo-5-(2-bromo-2-nitro-vinyl)-furan]
MIC50 ([1]; read-out: MIC50 values): 5.87 µg/mL (≈ 19.8 µM) | MIC90 ([1]; read-out: MIC90 values): 17.7 µg/mL (≈ 59.5 µM) | MIC50 [2]: 29.7 µg/mL (≈ 100 µM) | MIC90 [2]: 45.1 µg/mL (≈ 152 µM) | MIC50 [3]: 1.86 µg/mL (≈ 6.26 µM) | MIC90 [3]: 4.42 µg/mL (≈ 14.9 µM)
